Some test systems named below: SNB-75; SW-620; 786-0; MDA-MB-231; MDA-N; DU-145; A498; TK-10; CCRF-CEM; CAKI-1; MDA-MB-435; NCI/ADR-RES; RXF 393; SR; SF-539; HT-29; SK-MEL-2; PC-3; Hs-578T; T47D.
Common to all, as to test: inhibition of tumour cell growth, NCI panel, 48 h

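Each compound was tested at five concentrations against cells in 96-well plates for 48 hours. GI50 marks 50% less growth.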 Calls of active or inactive are those of the source. Rule as the data show it: active = GI50 up to about 1.1 µM and inactive = higher. Bounds are passed on as bounds.

Turning to `c1ccc2sc(C3(N4CCCC4)CCCCCC3)cc2c1`, the GI50 was 13.5 µM (inactive) with SNB-75; 16.9 µM (inactive) in the experiment on SW-620; 14.1 µM (inactive) in the experiment with 786-0; 17.1 µM (inactive) in the experiment on MDA-MB-231; 15.7 µM (inactive) with MDA-N; 22.4 µM (inactive) in the experiment on DU-145. The GI50 in the experiment on A498 is 16.6 µM (inactive); in the experiment on TK-10 it was 17.4 µM (inactive); in the experiment on CCRF-CEM it was 10.7 µM (inactive); in the experiment with CAKI-1, 20.9 µM (inactive); in the experiment on MDA-MB-435, 16.4 µM (inactive); in the experiment with NCI/ADR-RES it was 19.7 µM (inactive). In addition, the GI50 was 12.3 µM (inactive) with RXF 393, 18.8 µM (inactive) in the experiment with SR, 19.6 µM (inactive) in the experiment on SF-539 and 4.1 µM (inactive) with HT-29.

Take `Cn1ccnc1Sc1ccc(/C=N\NC(=O)c2cccc(F)c2)cc1[N+](=O)[O-]`: the GI50 in the experiment on SNB-75 was 27 µM (inactive); in the experiment on SW-620 it was > 100 µM (inactive); in the experiment with 786-0, 31.9 µM (inactive); in the experiment on SK-MEL-2 it was 30.8 µM (inactive); with MDA-MB-231, 80.2 µM (inactive); in the experiment with DU-145, 71.6 µM (inactive). Also, the GI50 with A498 was 29.8 µM (inactive); in the experiment with TK-10 it was > 100 µM (inactive); with CCRF-CEM, > 100 µM (inactive); in the experiment on PC-3 it was 24 µM (inactive); in the experiment with CAKI-1 it was > 100 µM (inactive); in the experiment with MDA-MB-435, 61.1 µM (inactive). Further, the GI50 is 79.3 µM (inactive) in the experiment on NCI/ADR-RES; 34.8 µM (inactive) in the experiment on RXF 393; 24.2 µM (inactive) in the experiment on Hs-578T; 33.2 µM (inactive) in the experiment with SR; 25.9 µM (inactive) with SF-539; > 100 µM (inactive) in the experiment with HT-29. The GI50 in the experiment on T47D is 36.1 µM (inactive).

Turning to `COc1ccc(Cc2coc3ccccc3c2=O)cc1OC`, the GI50 in the experiment on SNB-75 is > 100 µM (inactive); in the experiment on SW-620, > 100 µM (inactive); in the experiment on 786-0 it was > 100 µM (inactive); in the experiment on SK-MEL-2, > 100 µM (inactive); in the experiment with MDA-MB-231, 99.1 µM (inactive); in the experiment on DU-145 it was > 100 µM (inactive). The GI50 is > 100 µM (inactive) in the experiment with TK-10; > 100 µM (inactive) with CCRF-CEM; 93.5 µM (inactive) with PC-3; 11.6 µM (inactive) with CAKI-1; 79.4 µM (inactive) in the experiment with MDA-MB-435; 36.1 µM (inactive) with NCI/ADR-RES. The GI50 with RXF 393 is 52.4 µM (inactive); in the experiment on Hs-578T, 56.6 µM (inactive); in the experiment with SR it was 61.1 µM (inactive); in the experiment with SF-539, 42.8 µM (inactive); in the experiment with HT-29 it was > 100 µM (inactive); in the experiment on T47D, 33.2 µM (inactive).

Take `CC1(C)S[C@@H]2[C@H](NC(=O)[C@H](N)c3ccccc3)C(=O)N2[C@H]1C(=O)O` [AMPICILLIN]: the GI50 in the experiment on SNB-75, in the experiment on SW-620, with 786-0, in the experiment with SK-MEL-2, with MDA-MB-231 and in the experiment with DU-145 was > 100 µM (inactive) each time. Further, the GI50 in the experiment on TK-10, with CCRF-CEM, with PC-3, with CAKI-1, with MDA-MB-435 and with NCI/ADR-RES was > 100 µM (inactive) each time. The GI50 with Hs-578T is 63.8 µM (inactive); with SR, > 100 µM (inactive); in the experiment with SF-539, > 100 µM (inactive); in the experiment on HT-29, > 100 µM (inactive); in the experiment with T47D, > 100 µM (inactive).

For the compound `C/C=C(C)/C=C/CC(C)CCC=C(C)C` (configuration not stated), the GI50 in the experiment on SNB-75, with SW-620, in the experiment with 786-0, in the experiment on SK-MEL-2, in the experiment with MDA-MB-231 and with MDA-N was > 100 µM (inactive) each time. For the same compound, the GI50 in the experiment with DU-145, with A498, in the experiment with TK-10, in the experiment with CCRF-CEM, with CAKI-1 and in the experiment on MDA-MB-435 was > 100 µM (inactive) throughout. Also, the GI50 in the experiment on NCI/ADR-RES, in the experiment on RXF 393, with SR, with SF-539 and in the experiment on HT-29 was > 100 µM (inactive) in each case.

Take `c1ccc2c(c1)CC1=C(O2)c2ccccc2OC1`: the GI50 in the experiment with SW-620 is 19.8 µM (inactive); with 786-0, 16.6 µM (inactive); in the experiment with SK-MEL-2, 23.5 µM (inactive); in the experiment on MDA-MB-231, 31.8 µM (inactive); in the experiment with MDA-N it was 19.1 µM (inactive); in the experiment on DU-145 it was 35.9 µM (inactive). Also, the GI50 in the experiment with A498 was 61.1 µM (inactive); with TK-10, 33.2 µM (inactive); in the experiment on CCRF-CEM it was 32.7 µM (inactive); with PC-3, 38.2 µM (inactive); in the experiment on CAKI-1, 23.1 µM (inactive); in the experiment with MDA-MB-435, 27.3 µM (inactive). In addition, the GI50 in the experiment on NCI/ADR-RES is 36.6 µM (inactive); in the experiment on SR, 20.4 µM (inactive); with SF-539, 26.3 µM (inactive); in the experiment with HT-29, 31.6 µM (inactive); in the experiment on T47D, 17 µM (inactive).

As to `COC(=O)[C@H]1CO[C@H]2C/C(C)=C/CC/C(C)=C/CC[C@@]3(C)O[C@@H]3C[C@H]21`, the GI50 in the experiment with SNB-75 is 14.4 µM (inactive); in the experiment with SW-620, 10.4 µM (inactive); in the experiment on 786-0, 16.3 µM (inactive); with SK-MEL-2, 18 µM (inactive); in the experiment with MDA-MB-231, 10.8 µM (inactive); in the experiment on DU-145, 23.7 µM (inactive). In addition, the GI50 is 22.9 µM (inactive) in the experiment with A498; 20 µM (inactive) in the experiment on TK-10; 10 µM (inactive) in the experiment with CCRF-CEM; 15.3 µM (inactive) with PC-3; 36.1 µM (inactive) in the experiment on CAKI-1; 11.5 µM (inactive) with MDA-MB-435. For the same compound, the GI50 in the experiment with NCI/ADR-RES is 10.7 µM (inactive); in the experiment with RXF 393, 12.9 µM (inactive); in the experiment on Hs-578T, 14 µM (inactive); with SR, 10.6 µM (inactive); in the experiment with SF-539, 15.6 µM (inactive); with HT-29, 17.9 µM (inactive). In addition, the GI50 in the experiment with T47D was 20.5 µM (inactive).

In the case of `OCc1ccc2c(c1)CC1(C2)Cc2cc3c(cc2C1O)CCC3` (configuration not stated), the GI50 with SNB-75 was 3.85 µM (inactive); with SW-620 it was 4.55 µM (inactive); in the experiment on 786-0, 5.64 µM (inactive); in the experiment with SK-MEL-2, 3.33 µM (inactive); with MDA-MB-231 it was 2.65 µM (inactive); with DU-145 it was 9.1 µM (inactive). The GI50 in the experiment with A498 was 4.44 µM (inactive); in the experiment on TK-10, 21.9 µM (inactive); with CCRF-CEM, 4.01 µM (inactive); with PC-3, 2.34 µM (inactive); with CAKI-1 it was 5.25 µM (inactive); in the experiment with MDA-MB-435, 0.65 µM (active). Besides, the GI50 is 2.58 µM (inactive) in the experiment on NCI/ADR-RES; 2.77 µM (inactive) in the experiment on RXF 393; 2.71 µM (inactive) in the experiment with Hs-578T; 2.33 µM (inactive) with SR; 3.5 µM (inactive) in the experiment on SF-539; 3.27 µM (inactive) with HT-29. Also, the GI50 in the experiment on T47D is 1.36 µM (inactive).

With `CN1C(=O)C(=CNc2ccc(Cl)cc2Cl)C(=O)N(C)C1=O`, the GI50 in the experiment on SNB-75, in the experiment on SW-620, with 786-0, in the experiment with SK-MEL-2, with MDA-MB-231 and in the experiment with A498 was > 100 µM (inactive) in each case. The GI50 was > 100 µM (inactive) with TK-10; 13.9 µM (inactive) with CCRF-CEM; > 100 µM (inactive) in the experiment on PC-3; > 100 µM (inactive) in the experiment with CAKI-1; > 100 µM (inactive) in the experiment on MDA-MB-435; > 100 µM (inactive) in the experiment with NCI/ADR-RES. Moreover, the GI50 in the experiment on RXF 393, with Hs-578T, with SR, with SF-539, with HT-29 and in the experiment with T47D was > 100 µM (inactive) in each case.

For the compound `CSc1nc(O)c(C#N)c(-c2ccccc2)n1`, the GI50 in the experiment on SNB-75, in the experiment with SW-620, in the experiment on 786-0, in the experiment with SK-MEL-2, in the experiment with MDA-MB-231 and with DU-145 was > 100 µM (inactive) in each case. The GI50 in the experiment on A498, with TK-10, with CCRF-CEM, in the experiment with PC-3, with CAKI-1 and in the experiment with MDA-MB-435 was > 100 µM (inactive) throughout. The GI50 is > 100 µM (inactive) in the experiment with NCI/ADR-RES; > 100 µM (inactive) in the experiment with RXF 393; > 100 µM (inactive) in the experiment with Hs-578T; > 100 µM (inactive) with SF-539; > 100 µM (inactive) in the experiment on HT-29; 64.9 µM (inactive) in the experiment with T47D.

`Cc1sc(Nc2ccc(Nc3nc(-c4ccccc4)c(C)s3)cc2)nc1-c1ccccc1`: the GI50 in the experiment with SNB-75 was 48.4 µM (inactive); with SW-620 it was 40.2 µM (inactive); in the experiment with 786-0, 21.2 µM (inactive); in the experiment on SK-MEL-2, 21.7 µM (inactive); in the experiment with MDA-MB-231, 42 µM (inactive); in the experiment with DU-145, 74 µM (inactive). The GI50 with A498 is 21.8 µM (inactive); in the experiment on TK-10, 57.8 µM (inactive); with CCRF-CEM, 2.29 µM (inactive); in the experiment with PC-3 it was 16.6 µM (inactive); in the experiment on CAKI-1 it was 88.1 µM (inactive); with MDA-MB-435, > 100 µM (inactive). Further, the GI50 in the experiment on NCI/ADR-RES was 41.4 µM (inactive); in the experiment on RXF 393, 8.67 µM (inactive); with Hs-578T, > 100 µM (inactive); in the experiment with SR, 20.9 µM (inactive); with SF-539, 26.3 µM (inactive); in the experiment on HT-29 it was 60 µM (inactive). Moreover, the GI50 in the experiment on T47D was 8.95 µM (inactive).

The values above are taken from ChEMBL document CHEMBL1201862, “PubChem BioAssay data set” (2004).
